“Also recorded” adds a separate entry of the source.
Columns and labels:
Assay type in all cases: cell-based
BT-20 cells [1] = experiment: MTT cell cytotoxicity assay; details: Homo sapiens, 72 h incubation, read-out: IC50 ± SD, BT-20, MTT Assay
Description: (§1) The cytotoxic efficacy of thienopyrimidine derivatives was determined as previously described, using 3 different assays: (1) (3-(4,5-dimethylthiazol-2-yl)-2,5-diphenyltetrazolium bromide) (MTT) (Avantor, Radnor, PA, USA), (2) CellTiter-Blue (CTB) (Promega, Madison, WI, USA), and (3) sulforhodamine B (SRB) (TargetMol, Boston, MA, USA) assay. For these assays, cells were harvested using 0.05% trypsin-ethylenediamine-tetraacetic acid (EDTA) (Corning, Corning, NY, USA), seeded at a density of 3000–5000 cells/well in a 96-well plate, and incubated at 37 °C overnight. The next day, the cells were incubated with different concentrations of the test compounds (0.1, 0.3, 1, 3, 10, 30, or 100 μM) and incubated for 72 h. […] In contrast, vehicle control (cells incubated in drug-free medium) contained less than 0.1% of DMSO.
For the MTT assay, 4 mg/mL MTT was added to the cells and incubated for 3 h to allow for the conversion of MTT (yellow) to formazan crystals (dark blue). Following incubation, the media was aspirated and DMSO was added to solubilize the formazan crystals. The Cytation 7 Cell Imaging Multi-Mode Reader (Agilent Technologies, Winooski, VT, USA) was used to measure the absorbance at 570 nm.

BT-20 cells [2] = experiment: CellTiter-Blue (CTB) assay; details: Homo sapiens, 72 h incubation, read-out: IC50 ± SD, BT-20, CTB Assay
Description: as §1
For the CTB assay, the CTB reagent was added to cells and incubated for 3 h to allow the reduction of resazurin (emits a blue color and low fluorescence) by metabolically active cells to resorufin (emits a pink color and high fluorescence). Finally, the plates were shaken for 10 s in a plate shaker, and fluorescence was measured at 560/590 nm.

BT-20 cells [3] = experiment: Sulforhodamine B (SRB) assay; details: Homo sapiens, 72 h incubation, read-out: IC50 ± SD, BT-20, SRB Assay
Description: as §1
For the SRB assay, the cells were fixed with 50% (w/v) tri-chloroacetic acid (TCA) (Avantor, Radnor, PA, USA) and incubated at 4 °C for 1 h. The cells were washed 4 times with deionized, distilled water, and air-dried at room temperature. The next day, the cells were stained with 0.04% (w/v) SRB solution for 1 h at room temperature and washed 4 times with 1% (v/v) acetic acid (Avantor, Radnor, PA, USA). After airdrying the plates overnight, 10 mM Tris base solution (pH 10.5) was added to each well and pipetted thoroughly to dissolve the dye, and absorbance was read at 510 nm.

BT-20 cells [4] = experiment: Nuclear staining with Hoechst 33342; details: 1 μM, 24 h
Description: Briefly, 100,000 cells/well of BT-20 cells were plated in a 6-well plate containing clear sterile coverslips. […] Next, the cells were stained with 0.5% v/v of the Hoechst 33342 dye for 15 min. 4% paraformaldehyde at a concentration of 4%, was used to fix cells at room temperature for another 15 min. After 1 wash with PBS, the cells were mounted on a clear slide, using Fluoromount-G (SouthernBiotech, Birmingham, AL, USA). The slides were visualized to detect nuclear fragmentation using the Cytation 7 Cell Imaging Multi-Mode Reader (Agilent Technologies, Winooski, VT, USA), which provided data related to nuclear fragmentation.

[5] = test system: caspases (-3, -7, -8, -9), BAX, BAK, BCL-2, PARP in BT-20 cells; experiment: Western blot of apoptotic and anti-apoptotic proteins; details: 1 μM
Description: Subsequently, the cells were washed with ice-cold PBS. The subcellular fraction was obtained by scraping the cells using a cell scrapper in ice-cold cytosolic lysis buffer. Next, the lysates were left on ice for 15 min. Nonyl phenoxypolyethoxylethanol (NP-40) (10% v/v) was introduced in the lysates and subjected to 2–3 min incubation. The lysates were then centrifuged for 10 min at 4 °C and 14,000 rpm. The resultant protein concentration in the lysates was determined using bicinchoninic acid (BCA) assay. Thirty micrograms of the proteins were loaded and separated on a 10% acrylamide SDS-PAGE gel, transferred to a PVDF membrane, and incubated overnight at 4 °C, with primary antibodies against cleaved caspase-3, caspase-3, cleaved caspase-7, caspase-7, cleaved caspase-9, caspase-9, cleaved caspase-8, caspase-8, BAX, BAK, BCL-2, cleaved PARP, PARP, p-DRP1, DRP1, p-MFF, MFF, FIS1, MFN1, MFN2, OPA1, and β-actin. […] ImageJ software (National Institutes of Health, Bethesda, MD, USA) was used to quantify the protein. Cellular proteins were quantified as a ratio to β-actin and were normalized to the vehicle control. The densitometry readings/intensity ratio of each band, andthe original whole western blot (uncropped blots) showing all the bands with the molecular weight markers, is shown in the Supplemental Materials.

[6] = test system: caspase 3/7 activity in BT-20 cells; experiment: Caspase-Glo 3/7 activity assay
Description: Caspase-Glo® 3/7 Assay (Promega, Madison, WI, USA) was used to study the caspase 3/7 activity in BT-20 cells incubated with lead compounds. Briefly, 3000 BT-20 TNBC cells/well were plated in an opaque 96-well plate. […] Next, a mixture of Caspase-Glo® 3/7 buffer and lyophilized Caspase-Glo® 3/7 substrate was equilibrated to room temperature. The plates were removed from the incubator and allowed to adjust to room temperature for 30 min. Next, 100 μL of the Caspase-Glo® 3/7 reagent was added to each well, and the samples were placed in a shaker for 30 s. After 3 h of incubation at room temperature, luminescence, which indicates cleavage of […] caspases (caspase-3 and -7), was measured using a microplate reader (Agilent Technologies, Winooski, VT, USA).

[7] = test system: cytochrome c in BT-20 cells; experiment: Immunofluorescence of cytochrome c; details: 1 μM, p < 0.0001
Description: Immunofluorescence assays were conducted as previously described. In total, 100,000 BT-20 cells per well were plated on coverslips in a 6-well plate. […] After the incubation period, the media was carefully removed, and the cells were fixed using 1 mL of 4% paraformaldehyde for 15 min at room temperature. The cells were rinsed three times with PBS for 5 min. Five hundred microliters of 0.2% Trition-X100 was added to each well for 10 min to permeabilize the cells. The cells were washed three times with PBS for 5 min each. The cells were then blocked with 3% bovine serum albumin (BSA) in PBS, containing 0.1% Tween, for 2 h at room temperature before incubation with either cytochrome c (1:250), DRP1 (1:50), or phosphorylated-DRP1(1:450) monoclonal antibodies (Cell Signaling Technology, Danvers, MA, USA) overnight at 4 °C. The cells were incubated with either anti-mouse Alexa Fluor™ 594 (Invitrogen, Waltham, MA, USA) or anti-rabbit Alexa Fluor™ 488 at room temperature for 1 h. Nuclei were finally stained with Hoechst 33342 (ImmunoChemistry Technologies, Davis, CA, USA) for 10 min. Images were captured using a Cytation 7 Cell Imaging Multi-Mode Reader.

ROS in BT-20 cells = experiment: Intracellular ROS (H2DCFDA dye); details: 2 μM, 2 h, p < 0.0001
Excerpt: It has been reported that ROS can cause the death of cancer cells by inducing apoptosis. Indeed, high levels of ROS activate the p53 enzyme system, which promotes late-stage apoptosis by upregulating the levels of pro-apoptotic proteins such as BAK and BAX and downregulating the levels of anti-apoptotic proteins such as BCL-2, BCL-xL, and MCL-1 [120]. In addition, ROS induce permeabilization of the outer mitochondrial membrane by opening the mitochondrial permeability transition pore (mPTP). This alters the electrochemical proton gradient across the mitochondria, causing the release of pro-apoptotic molecules into the cytoplasm, which are involved in apoptotic cell death. […] Cellular esterases hydrolyze the acetyl groups after the dye is taken up by cells, resulting in the formation of H2DCF [124]. Subsequently, intracellular ROS oxidize H2DCF to produce 2′,7′-dichlorofluorescein, which emits green fluorescence (excitation and emission wavelengths of 485 nm and 522 nm, respectively).

[8] = test system: mouse embryonic fibroblast (MEF) cells; experiment: β-Galactosidase staining (senescence), positive control; details: 250 nM, 24 h
Description: BT-20 cells were plated at 4000/well into a 96-well plate and incubated overnight. […] Four thousand cells/well of senescent MEFs were also seeded. The plate was incubated for 24 h. Once 80–100% confluency was obtained, mouse embryonic fibroblast (MEF) cells were incubated with 250 nM of doxorubicin for 24 h to induce senescence (positive control), followed by a change in media. The cells were incubated for another week and the media was changed every 3–4 days.
The next day, the cells were washed with PBS and fixed with 3% formaldehyde for 5 min. The cells were washed with PBS twice, followed by an addition of β-galactosidase (Research Products International, Racine, WI, USA) stain. The cells were placed in a 37 °C incubator with no CO2 overnight and imaged to detect β-galactosidase staining the next day using the Color Brightfield channel on the Cytation 7 Imaging Multi-Mode Reader.

[9] = test system: mitochondrial membrane potential in BT-20 cells; experiment: Mitochondrial membrane potential (TMRE dye); details: 200 μM, 4 h, p < 0.0001
Description: The mitochondrial membrane potential (MMP) was determined using fluorescence microscopy by staining cellular mitochondria with tetramethylrhodamine ethyl ester (TMRE) dye (Invitrogen, Waltham, MA, USA). […] As a positive control, cells were incubated with carbonyl cyanide 3-chlorophenylhydrazone (CCCP) (TargetMol, Boston, MA, USA), a compound that uncouples mitochondrial oxidative phosphorylation, at a concentration of 200 μM, for 4 h. After incubation with the test compounds, the media was carefully removed from each well and incubated for 20 min with 0.4 µM of TMRE in PBS. Finally, the dye was carefully removed and replaced with fresh PBS. The cells were then imaged to detect MMP using a Cytation 7 Cell Imaging Multi-Mode Reader.

SMILES: CC(=O)O[C@H]1C(=O)[C@@]2(C)[C@H]([C@H](OC(=O)c3ccccc3)[C@]3(O)C[C@H](OC(=O)[C@H](O)[C@@H](NC(=O)c4ccccc4)c4ccccc4)C(C)=C1C3(C)C)[C@]1(OC(C)=O)CO[C@@H]1C[C@@H]2O [PTX, Paclitaxel]
- IC50 (BT-20 cells [1]): 50 nM
- IC50 (BT-20 cells [2]): 70 ± 30 nM
- IC50 (BT-20 cells [3]): 50 nM
- level of nuclear fragmentation (positive control) (BT-20 cells [4]): significantly increased
- Bcl-2 levels compared to vehicle control [5]: significant decrease
- levels of cleaved caspase-3, -7, -8, -9 and total caspase-8 compared to vehicle control [5]: significantly upregulated
- level of bioluminescence (activation of caspase-3 and caspase-7) ([6]; 0.1 μM): significantly increased
- caspase-3 and 7 activity (Caspase-Glo 3/7) ([6]; 1 µM, n = 2): induced; also recorded: increased
- cytochrome c release compared to vehicle control [7]: significantly enhanced
- ROS levels compared to vehicle control (ROS in BT-20 cells): significantly elevated

SMILES: COc1cccc2c1C(=O)c1c(O)c3c(c(O)c1C2=O)C[C@@](O)(C(=O)CO)C[C@@H]3O[C@H]1C[C@H](N)[C@H](O)[C@H](C)O1 [doxorubicin]
- SA-β-gal staining of MEF cells (positive control) [8]: stained blue

SMILES: N#CC(C#N)=NNc1cccc(Cl)c1 [CCCP, carbonyl cyanide 3-chlorophenylhydrazone]
- TMRE fluorescence compared to vehicle control (positive control) [9]: significantly lower
